# Test system: early Delta variant of SARS-CoV-2
# Assay type: cell-based
smiles,measurement,value
Nc1nnc(Sc2ncc([N+](=O)[O-])s2)s1 [Halicin],antiviral effectiveness (virus growth by reverse transcriptase quantitative PCR),inhibition of virus growth

# — patent publication US20240353338A1 (priority 2023, published 2024)
